This passage reports AC50 results from ChEMBL document CHEMBL5291721, “A preclinical secondary pharmacology resource illuminates target-adverse drug reaction associations of marketed drugs” (Nat Commun, 2023).

Molecules are shown by their SMILES.

For experiment [1], the target named is T1, Muscarinic acetylcholine receptor M2 (Homo sapiens, UniProt P08172).
T1 sequence (P08172 whole entry): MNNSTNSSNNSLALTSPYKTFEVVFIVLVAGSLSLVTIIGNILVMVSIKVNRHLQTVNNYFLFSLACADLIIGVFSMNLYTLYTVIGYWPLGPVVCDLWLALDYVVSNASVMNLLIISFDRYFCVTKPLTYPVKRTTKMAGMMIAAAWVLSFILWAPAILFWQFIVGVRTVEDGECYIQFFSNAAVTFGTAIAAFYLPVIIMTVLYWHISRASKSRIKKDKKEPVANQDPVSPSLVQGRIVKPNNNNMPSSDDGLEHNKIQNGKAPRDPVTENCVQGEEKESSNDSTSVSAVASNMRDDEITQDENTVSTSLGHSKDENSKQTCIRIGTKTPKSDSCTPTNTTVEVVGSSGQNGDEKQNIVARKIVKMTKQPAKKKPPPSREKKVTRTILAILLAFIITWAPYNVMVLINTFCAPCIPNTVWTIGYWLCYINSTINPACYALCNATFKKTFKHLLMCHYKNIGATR
The format is functional, cell-based.

Experiment [2] concerns the target Histamine H1 receptor (Homo sapiens, UniProt P35367).
In experiment [3] the target is 3',5'-cyclic-AMP phosphodiesterase 4D (Homo sapiens, UniProt Q08499). The format is functional.
3',5'-cyclic-AMP phosphodiesterase 4D, sequence (Q08499 whole entry): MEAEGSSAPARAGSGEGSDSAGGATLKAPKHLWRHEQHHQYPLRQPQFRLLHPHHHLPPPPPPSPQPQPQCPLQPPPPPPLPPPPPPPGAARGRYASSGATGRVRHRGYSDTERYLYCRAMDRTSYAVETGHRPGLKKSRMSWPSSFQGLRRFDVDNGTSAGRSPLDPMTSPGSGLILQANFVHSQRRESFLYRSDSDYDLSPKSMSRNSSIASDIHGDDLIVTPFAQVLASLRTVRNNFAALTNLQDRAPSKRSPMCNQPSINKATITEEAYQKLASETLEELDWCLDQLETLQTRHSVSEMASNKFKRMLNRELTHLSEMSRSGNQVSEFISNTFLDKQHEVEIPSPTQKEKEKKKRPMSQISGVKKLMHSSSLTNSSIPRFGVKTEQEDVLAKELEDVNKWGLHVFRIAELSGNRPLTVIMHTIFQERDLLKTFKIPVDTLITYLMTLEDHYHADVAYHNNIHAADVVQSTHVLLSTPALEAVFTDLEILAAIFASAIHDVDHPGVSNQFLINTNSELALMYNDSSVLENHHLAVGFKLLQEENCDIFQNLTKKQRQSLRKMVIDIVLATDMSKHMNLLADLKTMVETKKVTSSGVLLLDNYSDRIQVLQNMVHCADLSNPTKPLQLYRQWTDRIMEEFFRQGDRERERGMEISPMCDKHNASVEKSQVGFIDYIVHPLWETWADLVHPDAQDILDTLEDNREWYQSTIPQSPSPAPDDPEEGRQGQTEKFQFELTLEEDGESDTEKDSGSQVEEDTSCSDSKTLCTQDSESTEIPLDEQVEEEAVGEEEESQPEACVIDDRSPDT
Experiment [4] deals with Glutamate receptor ionotropic, NMDA 1 (Rattus norvegicus, UniProt P35439).
Experiment [5] has as its target Voltage-dependent L-type calcium channel subunit alpha-1C (Rattus norvegicus, UniProt P22002). It counts as functional.
In experiment [6] the target is Growth hormone secretagogue receptor type 1 (Homo sapiens, UniProt Q92847).
Growth hormone secretagogue receptor type 1, sequence (Q92847 whole entry): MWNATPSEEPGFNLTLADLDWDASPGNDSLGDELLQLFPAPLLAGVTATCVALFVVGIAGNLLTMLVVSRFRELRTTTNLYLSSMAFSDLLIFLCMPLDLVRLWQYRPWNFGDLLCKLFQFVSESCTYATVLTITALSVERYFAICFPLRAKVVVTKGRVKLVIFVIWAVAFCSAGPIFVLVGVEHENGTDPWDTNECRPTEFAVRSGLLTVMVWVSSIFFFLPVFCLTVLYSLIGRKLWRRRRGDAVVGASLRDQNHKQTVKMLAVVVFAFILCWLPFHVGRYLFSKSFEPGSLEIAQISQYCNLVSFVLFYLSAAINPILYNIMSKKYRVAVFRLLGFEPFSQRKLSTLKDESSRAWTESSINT
Experiment [7] addresses T2, Mu-type opioid receptor (Homo sapiens, UniProt P35372). The experiment in a line: biochemical. The format is functional.
Experiment [8] addresses Vasopressin V2 receptor (Homo sapiens, UniProt P30518).
In experiment [9] the target is 5-hydroxytryptamine receptor 2A (Homo sapiens, UniProt P28223). It counts as functional, cell-based.
For experiment [10], the target named is T3, Muscarinic acetylcholine receptor M1 (Homo sapiens, UniProt P11229).
T3 sequence (P11229 whole entry): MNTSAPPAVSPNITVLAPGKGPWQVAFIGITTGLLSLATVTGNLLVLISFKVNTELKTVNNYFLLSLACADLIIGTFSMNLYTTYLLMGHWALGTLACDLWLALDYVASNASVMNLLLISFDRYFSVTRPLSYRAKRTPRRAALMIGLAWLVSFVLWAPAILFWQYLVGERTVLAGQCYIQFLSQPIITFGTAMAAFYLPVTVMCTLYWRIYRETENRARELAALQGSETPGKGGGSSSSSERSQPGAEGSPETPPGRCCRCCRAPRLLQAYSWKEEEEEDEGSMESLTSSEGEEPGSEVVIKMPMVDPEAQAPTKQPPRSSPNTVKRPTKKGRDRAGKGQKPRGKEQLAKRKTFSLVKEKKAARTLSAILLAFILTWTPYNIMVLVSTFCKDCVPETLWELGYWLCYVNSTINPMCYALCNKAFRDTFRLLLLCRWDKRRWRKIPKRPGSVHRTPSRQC
The format is functional.

Experiment [11] deals with T2, Mu-type opioid receptor.
Experiment [12] addresses Adenosine receptor A2a (Homo sapiens, UniProt P29274).
For experiment [13], the target named is Vasopressin V1a receptor (Homo sapiens, UniProt P37288).
Experiment [14] has as its target T4, Cannabinoid receptor 1 (Homo sapiens, UniProt P21554). The format is functional, cell-based.
Experiment [15] concerns the target T4, Cannabinoid receptor 1.
In experiment [16] the target is Histamine H2 receptor (Homo sapiens, UniProt P25021). It counts as functional, cell-based.
Histamine H2 receptor, sequence (P25021 whole entry): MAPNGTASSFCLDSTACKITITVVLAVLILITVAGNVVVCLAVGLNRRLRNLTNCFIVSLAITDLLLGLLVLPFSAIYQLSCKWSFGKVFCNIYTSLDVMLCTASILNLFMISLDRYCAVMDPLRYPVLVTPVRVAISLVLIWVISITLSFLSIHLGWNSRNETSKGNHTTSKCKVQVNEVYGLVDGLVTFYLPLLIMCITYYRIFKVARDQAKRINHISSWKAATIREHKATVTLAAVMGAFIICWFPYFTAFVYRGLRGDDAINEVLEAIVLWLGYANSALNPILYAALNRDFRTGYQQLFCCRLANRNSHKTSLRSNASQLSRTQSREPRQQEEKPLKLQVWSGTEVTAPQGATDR
Experiment [17] has as its target T1, Muscarinic acetylcholine receptor M2. It counts as functional, cell-based. The source holds these as a separate data set.
Experiment [18] addresses T5, 5-hydroxytryptamine receptor 1A (Homo sapiens, UniProt P08908).
T5 sequence (P08908 whole entry): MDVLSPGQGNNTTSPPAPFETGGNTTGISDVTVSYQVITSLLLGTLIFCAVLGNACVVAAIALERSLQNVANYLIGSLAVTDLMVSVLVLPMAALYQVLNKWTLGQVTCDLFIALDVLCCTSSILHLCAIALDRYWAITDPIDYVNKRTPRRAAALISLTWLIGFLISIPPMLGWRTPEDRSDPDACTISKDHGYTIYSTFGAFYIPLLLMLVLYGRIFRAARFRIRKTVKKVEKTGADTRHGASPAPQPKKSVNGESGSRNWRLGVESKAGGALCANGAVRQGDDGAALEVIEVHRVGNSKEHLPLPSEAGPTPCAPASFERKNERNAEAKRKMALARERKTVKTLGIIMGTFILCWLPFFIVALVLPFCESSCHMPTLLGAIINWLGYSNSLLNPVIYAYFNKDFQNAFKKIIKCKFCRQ
It counts as functional, cell-based.

The target in experiment [19] is Gamma-aminobutyric acid receptor subunit alpha-1 (Rattus norvegicus, UniProt P62813). The format is functional.
Experiment [20] has as its target cGMP-inhibited 3',5'-cyclic phosphodiesterase 3A (Homo sapiens, UniProt Q14432). It counts as functional.
The target of experiment [21] is Beta-1 adrenergic receptor (Homo sapiens, UniProt P08588). It counts as functional.
Further: assay procedure not described here.

Voltage-dependent L-type calcium channel subunit alpha-1C, sequence (P22002 whole entry): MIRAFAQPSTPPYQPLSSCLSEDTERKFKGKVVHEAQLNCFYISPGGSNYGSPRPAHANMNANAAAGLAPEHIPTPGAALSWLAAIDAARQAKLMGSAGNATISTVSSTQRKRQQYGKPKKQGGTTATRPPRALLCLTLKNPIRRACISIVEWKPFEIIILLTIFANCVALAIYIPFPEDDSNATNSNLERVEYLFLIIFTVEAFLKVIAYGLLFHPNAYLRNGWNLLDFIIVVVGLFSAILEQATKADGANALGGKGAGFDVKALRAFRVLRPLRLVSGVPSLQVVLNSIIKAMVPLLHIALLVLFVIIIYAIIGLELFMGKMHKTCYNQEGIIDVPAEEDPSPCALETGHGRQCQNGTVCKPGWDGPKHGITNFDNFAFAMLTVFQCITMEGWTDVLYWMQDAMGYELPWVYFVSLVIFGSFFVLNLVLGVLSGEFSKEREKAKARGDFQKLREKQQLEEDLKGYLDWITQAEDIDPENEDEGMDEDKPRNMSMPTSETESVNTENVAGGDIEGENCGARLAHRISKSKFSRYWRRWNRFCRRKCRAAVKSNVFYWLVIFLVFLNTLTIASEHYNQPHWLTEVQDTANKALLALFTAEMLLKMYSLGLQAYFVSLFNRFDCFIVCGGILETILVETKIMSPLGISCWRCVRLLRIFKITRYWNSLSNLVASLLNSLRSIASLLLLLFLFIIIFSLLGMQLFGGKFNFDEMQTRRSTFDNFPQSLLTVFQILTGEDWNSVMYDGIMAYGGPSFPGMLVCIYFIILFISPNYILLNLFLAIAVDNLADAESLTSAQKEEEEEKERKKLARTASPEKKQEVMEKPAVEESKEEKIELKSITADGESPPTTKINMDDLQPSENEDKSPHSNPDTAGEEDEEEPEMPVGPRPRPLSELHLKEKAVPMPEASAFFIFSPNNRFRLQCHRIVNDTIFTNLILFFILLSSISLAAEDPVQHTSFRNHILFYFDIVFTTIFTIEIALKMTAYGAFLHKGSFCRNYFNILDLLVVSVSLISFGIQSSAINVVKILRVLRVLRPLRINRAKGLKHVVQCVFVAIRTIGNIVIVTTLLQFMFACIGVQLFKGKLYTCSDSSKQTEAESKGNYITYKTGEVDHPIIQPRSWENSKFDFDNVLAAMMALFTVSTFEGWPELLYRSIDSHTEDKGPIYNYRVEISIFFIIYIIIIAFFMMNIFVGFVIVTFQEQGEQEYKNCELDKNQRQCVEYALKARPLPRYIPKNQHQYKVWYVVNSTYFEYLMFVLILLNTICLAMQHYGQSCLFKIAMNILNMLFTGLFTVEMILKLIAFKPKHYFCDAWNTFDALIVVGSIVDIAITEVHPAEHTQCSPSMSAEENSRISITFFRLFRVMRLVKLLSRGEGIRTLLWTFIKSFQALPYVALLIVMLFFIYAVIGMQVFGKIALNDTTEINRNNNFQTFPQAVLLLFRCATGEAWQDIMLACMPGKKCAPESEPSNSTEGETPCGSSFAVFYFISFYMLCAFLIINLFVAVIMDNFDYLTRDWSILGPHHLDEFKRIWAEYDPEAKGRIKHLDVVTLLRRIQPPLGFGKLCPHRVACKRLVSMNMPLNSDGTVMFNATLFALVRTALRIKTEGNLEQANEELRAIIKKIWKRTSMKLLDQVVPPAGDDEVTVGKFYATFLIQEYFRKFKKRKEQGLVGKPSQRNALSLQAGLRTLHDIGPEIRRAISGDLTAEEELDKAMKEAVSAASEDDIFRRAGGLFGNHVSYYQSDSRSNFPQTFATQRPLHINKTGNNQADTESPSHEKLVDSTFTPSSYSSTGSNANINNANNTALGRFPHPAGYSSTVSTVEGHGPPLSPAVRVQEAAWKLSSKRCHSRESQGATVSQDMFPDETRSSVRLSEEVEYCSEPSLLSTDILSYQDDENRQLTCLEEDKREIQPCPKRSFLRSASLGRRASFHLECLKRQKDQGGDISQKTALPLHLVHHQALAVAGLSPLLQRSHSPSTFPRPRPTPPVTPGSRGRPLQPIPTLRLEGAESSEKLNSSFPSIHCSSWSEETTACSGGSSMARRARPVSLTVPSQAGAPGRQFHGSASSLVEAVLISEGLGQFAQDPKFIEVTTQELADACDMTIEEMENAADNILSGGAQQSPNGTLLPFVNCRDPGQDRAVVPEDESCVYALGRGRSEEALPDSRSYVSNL
cGMP-inhibited 3',5'-cyclic phosphodiesterase 3A, sequence (Q14432 whole entry): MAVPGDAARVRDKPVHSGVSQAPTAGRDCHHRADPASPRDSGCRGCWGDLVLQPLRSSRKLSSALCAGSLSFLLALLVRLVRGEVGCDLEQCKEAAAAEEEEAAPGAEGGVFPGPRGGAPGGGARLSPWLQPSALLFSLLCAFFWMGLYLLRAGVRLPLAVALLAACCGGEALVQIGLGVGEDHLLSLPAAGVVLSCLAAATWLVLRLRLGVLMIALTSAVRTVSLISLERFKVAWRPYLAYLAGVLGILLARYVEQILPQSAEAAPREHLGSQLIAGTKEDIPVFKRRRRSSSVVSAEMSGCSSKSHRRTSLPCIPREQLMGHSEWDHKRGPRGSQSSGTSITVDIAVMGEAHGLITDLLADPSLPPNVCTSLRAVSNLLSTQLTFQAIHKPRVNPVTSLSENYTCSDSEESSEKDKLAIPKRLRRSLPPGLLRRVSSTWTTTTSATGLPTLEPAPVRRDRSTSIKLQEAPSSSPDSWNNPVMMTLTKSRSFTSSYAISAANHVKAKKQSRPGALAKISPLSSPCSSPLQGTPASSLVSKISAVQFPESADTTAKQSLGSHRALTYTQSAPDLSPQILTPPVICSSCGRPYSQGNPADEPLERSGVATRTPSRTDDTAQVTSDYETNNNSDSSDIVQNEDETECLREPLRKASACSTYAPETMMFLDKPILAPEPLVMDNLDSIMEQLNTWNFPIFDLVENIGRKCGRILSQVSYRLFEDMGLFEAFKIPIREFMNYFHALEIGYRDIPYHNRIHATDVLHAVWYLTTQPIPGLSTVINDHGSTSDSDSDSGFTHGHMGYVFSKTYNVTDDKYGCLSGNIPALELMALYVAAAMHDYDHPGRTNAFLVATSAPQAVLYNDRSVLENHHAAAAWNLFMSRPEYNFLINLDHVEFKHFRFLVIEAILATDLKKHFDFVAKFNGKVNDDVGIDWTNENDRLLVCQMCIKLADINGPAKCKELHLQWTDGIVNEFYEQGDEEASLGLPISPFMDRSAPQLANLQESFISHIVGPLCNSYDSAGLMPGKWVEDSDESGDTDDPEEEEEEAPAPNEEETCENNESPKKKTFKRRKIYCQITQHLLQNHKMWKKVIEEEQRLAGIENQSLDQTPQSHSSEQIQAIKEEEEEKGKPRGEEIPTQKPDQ

The term AC50 denotes the concentration giving half of the maximal activity seen. On to `CC(=O)c1ccc(S(=O)(=O)NC(=O)NC2CCCCC2)cc1` [ACETOHEXAMIDE], for which the AC50 is more than 10 µM in [1]; more than 10 µM in [2]; more than 30 µM in [3]; more than 10 µM in [4]; more than 10 µM in [5]; more than 10 µM in [6]. Besides, the concentration at half-maximal activity (AC50) in [7] is more than 30 µM; in [8] it was more than 10 µM; in [9], more than 30 µM; in experiment [10], more than 10 µM; in [11] it was more than 30 µM; in [12], more than 10 µM. The AC50 in experiment [13] was more than 10 µM; in experiment [14], more than 30 µM; in experiment [15], more than 10 µM; in experiment [16], more than 10 µM; in experiment [17], more than 10 µM; in experiment [18], more than 10 µM. In addition, the values for the AC50 in [19], in experiment [20] and in [21] were more than 10 µM, more than 30 µM and more than 10 µM, respectively.
Consider `O=C(O)c1ccc(NC(=O)[C@H](Cc2ccc(O)cc2)NC(=O)c2ccccc2)cc1` [BENTIROMIDE], for which the concentration at half-maximal activity (AC50) in experiment [1] was more than 10 µM; in experiment [2] it was more than 10 µM; in experiment [3], more than 30 µM; in experiment [4] it was more than 10 µM; in experiment [5] it was more than 10 µM; in experiment [6] it was more than 10 µM. Moreover, the concentration at half-maximal activity (AC50) was more than 10 µM in experiment [8]; more than 10 µM in experiment [9]; more than 10 µM in [10]; more than 30 µM in [11]; more than 10 µM in experiment [12]; more than 10 µM in experiment [13]. Besides, the concentration at half-maximal activity (AC50) is more than 10 µM in [15]; more than 10 µM in experiment [16]; more than 10 µM in [17]; more than 10 µM in [18]; more than 10 µM in experiment [19]; more than 30 µM in experiment [20]. In experiment [21], this molecule yielded an AC50 of more than 10 µM.
As for `NS(=O)(=O)c1cc2c(cc1Cl)N=C(CSCc1ccccc1)NS2(=O)=O` [BENZTHIAZIDE], the half-maximal activity concentration (AC50) in [1] was more than 10 µM; in experiment [2], more than 30 µM; in experiment [3], more than 30 µM; in experiment [4], more than 10 µM; in experiment [5] it was more than 10 µM; in experiment [6], more than 10 µM. For the same molecule, the concentration at half-maximal activity (AC50) is more than 30 µM in experiment [7]; more than 10 µM in [8]; more than 10 µM in experiment [9]; more than 30 µM in experiment [10]; more than 30 µM in experiment [11]; more than 10 µM in experiment [12]. Moreover, the concentration at half-maximal activity (AC50) in experiment [13] was more than 10 µM; in [15] it was more than 10 µM; in experiment [16], more than 30 µM; in [17] it was more than 10 µM; in experiment [18] it was more than 10 µM; in experiment [19], more than 10 µM. For the same molecule, the values for the AC50 in experiment [20] and in experiment [21] were more than 30 µM and more than 10 µM, respectively.
Consider `CC(C)[C@@H](C)/C=C/[C@@H](C)[C@H]1CC[C@H]2/C(=C/C=C3\C[C@@H](O)CC[C@@H]3C)CCC[C@]12C` [DIHYDROTACHYSTEROL], for which the concentration at half-maximal activity (AC50) in [1] is more than 10 µM; in [2] it was more than 10 µM; in experiment [3] it was more than 30 µM; in experiment [4] it was more than 10 µM; in [5], more than 10 µM; in experiment [6], more than 10 µM. The AC50 is more than 10 µM in experiment [8]; more than 10 µM in experiment [9]; more than 10 µM in experiment [10]; more than 30 µM in [11]; more than 10 µM in [12]; more than 10 µM in experiment [13]. The half-maximal activity concentration (AC50) was more than 10 µM in [15]; more than 10 µM in [16]; more than 10 µM in [17]; more than 10 µM in experiment [18]; more than 10 µM in experiment [19]; more than 30 µM in [20]. The same molecule showed an AC50 in experiment [21] of more than 10 µM.
For the molecule `CCCC(C)(COC(N)=O)COC(N)=O` [MEPROBAMATE], the AC50 in [1] was more than 10 µM; in experiment [2], more than 10 µM; in experiment [3], more than 30 µM; in [4], more than 10 µM; in [5], more than 10 µM; in [6], more than 10 µM. Further, the AC50 was more than 30 µM in experiment [7]; more than 10 µM in [8]; more than 10 µM in experiment [9]; more than 30 µM in [10]; more than 30 µM in experiment [11]; more than 10 µM in experiment [12]. In addition, the concentration at half-maximal activity (AC50) in experiment [13] is more than 10 µM; in experiment [15] it was more than 10 µM; in [16], more than 30 µM; in experiment [17], more than 10 µM; in experiment [18], more than 10 µM; in experiment [19] it was more than 10 µM. The half-maximal activity concentration (AC50) in [20] was more than 30 µM; in [21] it was more than 10 µM.
For `CC1=C(/C=C/C(C)=C/C=C/C(C)=C/CO)C(C)(C)CCC1` [RETINOL], the AC50 is more than 10 µM in experiment [1]; more than 10 µM in experiment [2]; more than 30 µM in [3]; more than 10 µM in experiment [4]; more than 10 µM in experiment [5]; more than 10 µM in experiment [6]. The half-maximal activity concentration (AC50) was more than 30 µM in experiment [7]; more than 10 µM in experiment [8]; more than 10 µM in experiment [9]; more than 10 µM in experiment [10]; more than 30 µM in experiment [11]; more than 10 µM in [12]. The AC50 in experiment [13], in [15], in [16], in [17], in [18] and in experiment [19] was more than 10 µM throughout. Further, the AC50 in experiment [20] was more than 30 µM; in experiment [21], more than 10 µM.
